Laboratory results from patent publication US20130196362A1, “DIARYLAMINE-BASED FLUOROGENIC PROBES FOR DETECTION OF PEROXYNITRITE” (THE UNIVERSITY OF HONG KONG, priority 2012, published 2013).

Key:
[1] = Reactivity of probe toward different ROS and RNS (selectivity) in phosphate buffer; details: for increase in fluorescence intensity with peroxynitrite versus other ROS and RNS: OCl-, pH 7.4
Method: (§1) FIG. 1A depicts fluorescence spectra showing fluorescence intensities of compound 2 after treatment with different amounts of peroxynitrite. […] The spectra were acquired by dissolving Compound 2 in 0.1 M phosphate buffer at pH 7.4 to form a 1 μM solution, with excitation and emission spectra at 510 nm and 530 nm, respectively. The concentration of highly reactive oxygen species hydroxyl radical (.OH), hypochlorous acid (^−OCl), and peroxynitrite (ONOO^−) is 1 μM. The concentration of ^1O2, O2.^−, NO, ROO. and H2O2 is 10 μM.
(§2) FIG. 2A depicts fluorescence spectra showing fluorescence intensities of Compound 11 after treatment with different amounts of peroxynitrite. […] The spectra were acquired by dissolving […] in 0.1M phosphate buffer at pH 7.4 to form a 2 μM solution, with excitation and emission at 547 nm and 570 nm, respectively. The concentration of highly reactive oxygen species hydroxyl radical (.OH), hypochlorous acid (^−OCl), and peroxynitrite (ONOO^−) is 2 μM. The concentration of ^1O2, O2.^−, NO, ROO. and H2O2 is 20 μM.
(§3) FIG. 3A depicts fluorescence spectra showing fluorescence intensities of Compound 22 after treatment with different amounts of peroxynitrite. […] The spectra were acquired by dissolving Compound 22 in 0.1M phosphate buffer at pH 7.4 to form a 5 μM solution, with excitation at 600 nm and emission at 617 nm, respectively. The concentration of highly reactive oxygen species hydroxyl radical (.OH), hypochlorous acid (^−OCl), and peroxynitrite (ONOO^−) is 5 μM. The concentration of ^1O2, O2.^−, NO, ROO. and H2O2 is 50 μM.
as §3, with “4A” for “3A”, “25” for “22”, “650” for “600”, “665” for “617”
(§4) FIG. 5A depicts fluorescence spectra showing fluorescence intensities of Compound 30 after treatment with different amounts of peroxynitrite. […] The spectra were acquired by dissolving Compound 30 in 0.1 M phosphate buffer at pH 7.4 and exciting at 515 nm. The concentration of highly reactive oxygen species hypochlorous acid (^−OCl) and peroxynitrite (ONOO^−) is 1 μM. The concentration of hydroxyl radical (.OH) is 1 μM or 10 μM. The concentration of ^1O2, O2.^−, NO, ROO. and H2O2 is 10 μM or 100 μM. (see figure for exact concentrations of certain ROS and RNS)
(§5) The reactivity of Compound 2 is compared toward different reactive oxygen species (ROS) and reactive nitrogen species (RNS). Specifically, the 1 μM solution of compound 2 is treated with various ROS and RNS. The concentration of highly reactive oxygen species (hydroxyl radical (.OH), hypochlorous acid (^−OCl), and peroxynitrite (ONOO^−)) is 1 μM. The concentration of ^1O2, O2.^−, NO, ROO. and H2O2 is 10 μM.
as §5, with “Compound 11” for “Compound 2”, “compared with” for “compared toward”, “the 2” for “the 1”, “compound 11” for “compound 2”, “is 2” for “is 1”, “is 20” for “is 10”
The reactivity of Compound 22 is compared with different reactive oxygen species (ROS) and reactive nitrogen species (RNS). Specifically, the 5 μM solution of compound 22 is treated with various ROS and RNS. The concentration of highly reactive oxygen species (hydroxyl radical (.OH), hypochlorous acid (^−OCl), and peroxynitrite (ONOO^−)) is 5 μM. The concentration of ^1O2, O2.^−, NO, ROO. and H2O2 is 50 μM. […]

[2] = Fluorescence response of probe to increasing peroxynitrite in phosphate buffer
Method: as §1, §2, §3
as §3, with “4A” for “3A”, “25” for “22”, “650” for “600”, “665” for “617”
as §4
Specifically, Compound 2 is dissolved in 0.1 M phosphate buffer at pH 7.4 to form a 1 μM solution, with excitation and emission spectra at 510 nm and 530 nm, respectively. The 1 μM solution of Compound 2 is treated with peroxynitrite at various concentrations.
Specifically, Compound 11 is dissolved in 0.1 M phosphate buffer at pH 7.4 to form a 2 μM solution, with excitation and emission spectra at 547 nm and 570 nm, respectively. The 2 μM solution of Compound 11 is treated with peroxynitrite at various concentrations.
Specifically, Compound 22 is dissolved in 0.1 M phosphate buffer at pH 7.4 to form a 5 μM solution, with excitation and emission spectra at 600 nm and 617 nm, respectively. The 5 μM solution of Compound 22 is treated with peroxynitrite at various concentrations. […]

[3] = tested on: RAW264.7 macrophage cells; assay: Fluorescent microscopy of RAW264.7 macrophages stimulated with LPS and IFN-γ; format: cell-based, Mouse; details: 500 nM
Method: The macrophage cells were incubated with Compound 27 at a concentration of 500 nM. Upper: Control; Lower: The macrophages were stimulated with LPS and IFN-γ for 14 hr. Left: Nuclear staining with Hoechst; Middle: Compound 27; Right: Merged.
(§6) Human SH-SY5Y neuroblastoma cells (ATCC, USA) were maintained in high glucose Dulbecco's Modified Eagle Medium (DMEM, Hyclone) supplemented with 10% fetal bovine serum (FBS, Gibco), 1% penicillin/streptomycin (PS, Gibco) and 1% L-glutamine (Gibco). Mouse C17.2 neural progenitor cells (ATCC, USA) were maintained in high glucose Dulbecco's Modified Eagle Medium supplemented with 8% fetal bovine serum (Gibco), 4% horse serum (Gibco), 1% penicillin/streptomycin and 1% L-glutamine. Mouse RAW264.7 macrophage cells (ATCC, USA) were maintained in high glucose Dulbecco's Modified Eagle Medium (DMEM, Hyclone) supplemented with 10% fetal bovine serum (Gibco), 1% penicillin/streptomycin (Gibco) and 1% L-glutamine.
(§7) Generally, cells were grown to confluence prior to experiment. Cells were incubated with Compounds) 6, 7, 8, 14, 20, 21, 24, 27, and 32, respectively for 1 hr, and then washed three times with PBS buffer.

[4] = tested on: SH-SY5Y neuroblastoma cells; assay: Fluorescent microscopy of SH-SY5Y cells with or without SIN-1; format: cell-based, Human; details: incubated 1 hr; for fluorescence in the absence of stimulants: washed with PBS, no SIN-1; for fluorescence after treatment with stimulants: with SIN-1
Method: SH-SY5Y cells were co-stained with different compounds with or without SIN-1 for 1 h, and then washed quickly with PBS for 3 times and maintained in non-phenol red medium. Left: no SIN-1 treatment; Right: with SIN-1 treatment.
SH-SY5Y cells were co-stained with different compounds with or without SIN-1 for 1 h, and then washed quickly with PBS for 3 times and maintained in non-phenol red medium. Left: no SIN-1 treatment; Middle: with 1 mM SIN-1 treatment; Right: with 100 μM SIN-1 treatment.
SH-SY5Y cells were co-stained with different compounds with or without SIN-1 for 1 h, and then washed quickly with PBS for 3 times and maintained in non-phenol red medium. Left: no SIN-1 treatment; Middle: with 100 μM SIN-1 treatment; Right: with 200 μM SIN-1 treatment.
as §6, §7

[5] = tested on: C17.2 neural progenitor cells; assay: Fluorescent microscopy of C17.2 cells with or without SIN-1; format: cell-based, Mouse; details: for fluorescence in the absence of stimulants: no SIN-1; for fluorescence after treatment with stimulants: with SIN-1
Method: The cells were incubated with Compound 20 or 21 at a concentration of 1 μM, and then treated with (Lower) or without (Upper) SIN-1.
The cells were incubated with Compound 32 at a concentration of 5 μM.
as §6, §7

With Cc1cc(C(=O)O)ccc1C1=C2C=CC(=O)C=C2[Si](C)(C)c2cc(N(C)c3ccc(O)cc3)ccc21 [Compound 22] the “increase in fluorescence intensity with peroxynitrite versus other ROS and RNS” value (shortened to “increase in fluorescence intensity”) ([1]; 5 μM probe, ex 600/em 617 nm, .OH, ONOO- 5 μM, 1O2, O2.-, NO, ROO., H2O2 50 μM) was “much higher increase in fluorescence intensity” and the “fluorescence intensity after treatment with peroxynitrite at various concentrations” value (from here on “fluorescence intensity after treatment”) ([2]; 5 μM solution in 0.1 M phosphate buffer pH 7.4, excitation 600 nm, emission 617 nm) was “increases with increasing concentration of peroxynitrite”.

In the case of CC[N+]1=c2cc3c(cc2C(C)CC1(C)C)=C(c1ccc(C(=O)N(CC(=O)OC)CC(=O)OC)cc1C)c1ccc(N(C)c2ccc(O)cc2)cc1[Si]3(C)C (centres unmarked) [Compound 27], the “fluorescence after treatment with stimulants” value (“fluorescence after treatment” for short) ([3]; LPS and IFN-γ for 14 hr) is reported as “strongly induced” and the “fluorescence in the absence of stimulants” value (from here on “fluorescence in the absence”) ([3]; control) is reported as “very weak fluorescence”.

For CN(c1ccc(O)cc1)c1ccc2c(-c3ccccc3C(=O)N3CCN(C(=O)CCCC[P+](c4ccccc4)(c4ccccc4)c4ccccc4)CC3)c3ccc(=O)cc-3oc2c1 [Compound 30], the “increase in fluorescence intensity” value ([1]; 1 μM solution of compound 30, ex 515 nm, em 540 nm, ONOO- 1 μM, .OH 1 or 10 μM, others 10 or 100 μM) was “sensitively and selectively detects peroxynitrite”, the emission maximum ([1]; 0.1 M phosphate buffer pH 7.4, exciting at 515 nm) was 540 nm and the “fluorescence intensity after treatment” value ([2]; 1 μM solution in 0.1 M phosphate buffer pH 7.4, excited at 515 nm) was “increases with increasing concentration of peroxynitrite”.

For CC[N+]1=c2cc3c(cc2C(C)CC1(C)C)=C(c1ccc(C(=O)O)cc1C)c1ccc(N(C)c2ccc(O)cc2)cc1[Si]3(C)C (centres unmarked) [Compound 25], the “increase in fluorescence intensity” value ([1]; 5 μM probe, ex 650/em 665 nm, .OH, ONOO- 5 μM, 1O2, O2.-, NO, ROO., H2O2 50 μM) was “much higher increase in fluorescence intensity” and the “fluorescence intensity after treatment” value ([2]; 5 μM solution in 0.1 M phosphate buffer pH 7.4, excitation 650 nm, emission 665 nm) was “increases with increasing concentration of peroxynitrite”.

With COC(=O)CN(CC(=O)OC)C(=O)c1ccc(C2=C3C=CC(=O)C=C3[Si](C)(C)c3cc(N(C)c4ccc(O)cc4)ccc32)c(C)c1 [Compound 24] the “fluorescence in the absence” value [4] was “very weak fluorescence” and the “fluorescence after treatment” value [4] was “strongly induced”.

For CC[N+]1=c2cc3c(cc2C(C)CC1(C)C)=C(c1ccc(CCl)cc1C)c1ccc(N(C)c2ccc(O)cc2)cc1O3 (centres unmarked) [Compound 20], the “fluorescence in the absence” value [5] was “very weak fluorescence” and the “fluorescence after treatment” value [5] was “strongly induced”.

In the case of COC(=O)CCN(CCC(=O)OC)C(=O)c1ccc2c(c1)C(=O)OC21c2ccc(OC(C)=O)cc2Oc2cc(N(C)c3ccc(O)cc3)ccc21 (centres unmarked) [Compound 8], the “fluorescence in the absence” value [4] is reported as “very weak fluorescence” and the “fluorescence after treatment” value [4] is reported as “strongly induced”.

With CC1CC(C)(C)[N+](CCCC(=O)O)=c2cc3c(cc21)=C(c1ccccc1C(=O)O)c1cc(Cl)c(N(C)c2ccc(O)cc2)cc1O3 (centres unmarked) [Compound 11] the “increase in fluorescence intensity” value ([1]; 2 μM probe, .OH, ONOO- 2 μM, 1O2, O2.-, NO, ROO., H2O2 20 μM) was “much higher increase in fluorescence intensity” and the “fluorescence intensity after treatment” value ([2]; 2 μM solution in 0.1 M phosphate buffer pH 7.4, excitation 547 nm, emission 570 nm) was “increases with increasing concentration of peroxynitrite”.

In the case of CN(c1ccc(O)cc1)c1ccc2c(-c3ccc(C(=O)N(CC(=O)O)CC(=O)O)cc3C(=O)O)c3ccc(=O)cc-3oc2c1 [Compound 2], the “increase in fluorescence intensity” value ([1]; 1 μM probe, .OH, ONOO- 1 μM, 1O2, O2.-, NO, ROO., H2O2 10 μM) is reported as “much higher increase in fluorescence intensity” and the “fluorescence intensity after treatment” value ([2]; 1 μM solution in 0.1 M phosphate buffer pH 7.4, excitation 510 nm, emission 530 nm) is reported as “increases with increasing concentration of peroxynitrite”.

In the case of COC(=O)CN(CC(=O)OC)C(=O)c1ccc2c(c1)C(=O)OC21c2ccc(OC(C)=O)cc2Oc2cc(N(C)c3ccc(O)cc3)ccc21 (centres unmarked) [Compound 7], the “fluorescence in the absence” value [4] is reported as “very weak fluorescence” and the “fluorescence after treatment” value [4] is reported as “strongly induced”.

In the case of CC[N+]1=c2cc3c(cc2C(C)CC1(C)C)=C(c1ccc(C)cc1C)c1ccc(N(C)c2ccc(O)cc2)cc1O3 (centres unmarked) [Compound 21], the “fluorescence in the absence” value [5] is reported as “very weak fluorescence” and the “fluorescence after treatment” value [5] is reported as “strongly induced”.
